Test results taken from patent publication US20250152585A1, “PHARMACEUTICAL COMPOUND” (Duke Street Bio Limited, priority 2022, published 2025).
pIC50, pKd: −log10 of the molar value. Like-named read-outs stand apart in the source and are kept apart here.

Assays:
[1] = target: T1, full length N-terminally FLAG-tagged PARP1 (Homo sapiens, UniProt P09874); test: PARP1 probe displacement HTRF assay; conditions: for Selectivity: PARP1 over PARP2, ratio Kd (PARP2)/Kd (PARP1); for pKd: binned Kd
[2] = target: T1, full length N-terminally FLAG-tagged PARP1; test: PARP1 biochemical DELFIA assay (auto-PARylation); design: recombinant full length human N-terminally FLAG-tagged PARP1
[3] = target: T2, N-terminally FLAG-tagged PARP2 (amino acids 1-583) (Homo sapiens, UniProt Q9UGN5); test: PARP2 probe displacement HTRF assay; format: binding; conditions: binned Kd
T2 construct: N-terminally FLAG-tagged PARP2 (amino acids 1-583)
T2 sequence (Q9UGN5 whole entry, the tested form may be a part): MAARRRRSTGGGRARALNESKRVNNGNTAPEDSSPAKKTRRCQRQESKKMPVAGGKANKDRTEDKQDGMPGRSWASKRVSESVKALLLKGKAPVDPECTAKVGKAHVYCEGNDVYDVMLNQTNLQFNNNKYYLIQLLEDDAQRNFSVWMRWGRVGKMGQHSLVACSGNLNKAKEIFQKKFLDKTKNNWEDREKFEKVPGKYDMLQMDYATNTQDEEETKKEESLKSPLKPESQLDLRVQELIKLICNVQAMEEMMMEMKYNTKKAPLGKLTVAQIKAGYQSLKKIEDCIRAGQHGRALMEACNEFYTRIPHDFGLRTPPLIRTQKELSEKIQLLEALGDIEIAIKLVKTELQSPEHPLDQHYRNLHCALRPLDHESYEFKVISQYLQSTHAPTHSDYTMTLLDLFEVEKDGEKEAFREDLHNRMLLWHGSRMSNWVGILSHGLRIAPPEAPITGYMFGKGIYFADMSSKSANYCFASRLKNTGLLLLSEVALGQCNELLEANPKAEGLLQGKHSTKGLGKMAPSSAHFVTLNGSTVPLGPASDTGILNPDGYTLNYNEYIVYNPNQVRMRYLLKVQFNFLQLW
Procedure: Data analysis was performed identical as for PARP1.

[4] = read-out: PARP1 HTRF, PARP1 probe displacement HTRF
[5] = binned IC50, PARP1 biochemical DELFIA assay
[6] = read-out: PARP1 HTRF, probe displacement HTRF
[7] = binned IC50, biochemical auto-PARylation assay
[8] = PARP1 HTRF, PARP1 probe displacement HTRF
[9] = PARP1 HTRF, probe displacement HTRF

T1 sequence (P09874 whole entry): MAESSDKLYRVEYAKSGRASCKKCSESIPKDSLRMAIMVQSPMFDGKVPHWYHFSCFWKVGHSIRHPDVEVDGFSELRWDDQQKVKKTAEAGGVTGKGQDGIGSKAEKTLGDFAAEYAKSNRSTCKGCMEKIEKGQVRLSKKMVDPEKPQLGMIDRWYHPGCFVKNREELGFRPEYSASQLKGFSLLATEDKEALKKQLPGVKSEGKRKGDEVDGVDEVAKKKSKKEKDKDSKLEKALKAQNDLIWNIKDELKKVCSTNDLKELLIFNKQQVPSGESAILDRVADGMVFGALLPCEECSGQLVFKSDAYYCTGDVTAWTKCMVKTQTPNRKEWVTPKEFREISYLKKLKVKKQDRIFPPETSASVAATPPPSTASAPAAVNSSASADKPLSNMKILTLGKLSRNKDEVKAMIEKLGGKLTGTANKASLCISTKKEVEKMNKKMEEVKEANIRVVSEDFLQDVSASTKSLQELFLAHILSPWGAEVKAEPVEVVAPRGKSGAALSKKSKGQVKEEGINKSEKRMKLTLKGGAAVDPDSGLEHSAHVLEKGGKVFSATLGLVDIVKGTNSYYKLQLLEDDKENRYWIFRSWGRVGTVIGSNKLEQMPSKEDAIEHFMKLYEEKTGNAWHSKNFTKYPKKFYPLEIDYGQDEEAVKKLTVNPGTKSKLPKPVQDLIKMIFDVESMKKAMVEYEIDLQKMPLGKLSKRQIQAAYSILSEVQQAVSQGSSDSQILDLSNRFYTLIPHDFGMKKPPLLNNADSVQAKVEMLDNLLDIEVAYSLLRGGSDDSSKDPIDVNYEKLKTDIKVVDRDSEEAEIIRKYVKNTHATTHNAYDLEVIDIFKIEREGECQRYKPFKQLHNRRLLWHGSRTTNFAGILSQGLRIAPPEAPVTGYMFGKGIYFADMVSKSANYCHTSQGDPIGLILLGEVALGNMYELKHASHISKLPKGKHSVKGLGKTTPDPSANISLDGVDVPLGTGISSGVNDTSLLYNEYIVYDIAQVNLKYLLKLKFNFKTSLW

pKd [1, 4]	pIC50 [2, 5]	pKd ([3]; PARP2 probe displacement HTRF)	pKd [1, 6]	pIC50 [2, 7]	pKd ([3]; probe displacement HTRF)	pKd [1, 8]	pKd [1, 9]	Compound	Selectivity ([1]; probe displacement HTRF)
–	6.00 to 7.00	< 5.00	–	–	–	6.00 to 7.00	–	CCc1ccc(C2CCCN(C3CCN(c4ccc(C(=O)NC)nc4)CC3)C2)[nH]c1=O (single isomer, unassigned) [Compound 53b, 5-{4-[3-(5-ethyl-6-oxo-1H-pyridin-2-yl)piperidin-1-yl]piperidin-1-yl}-N-methylpyridine-2-carboxamide]	+ (+ indicates a value of 10 to less than 50)
–	–	–	> 8.00	> 8.00	6.00 to 7.00	–	–	CCc1ccc(C2CCN(C3CCN(c4cnc(C(=O)NC5CC5)c(F)c4)CC3)C2)[nH]c1=O (single isomer, unassigned) [Compound 408a]	+++ (+++ indicate a value of at least 100)
–	> 8.00	6.00 to 7.00	–	–	–	7.00 to 8.00	–	CNC(=O)c1ccc(N2CCC(N3CCC(c4nc5c(c(=O)[nH]4)CCCN5C)C3)CC2)cn1 (single isomer, unassigned) [Compound 208a, N-methyl-5-(4-(3-(8-methyl-4-oxo-3,4,5,6,7,8-hexahydropyrido[2,3-d]pyrimidin-2-yl)pyrrolidin-1-yl)piperidin-1-yl)picolinamide]	+ (+ indicates a value of 10 to less than 50)
–	–	–	> 8.00	> 8.00	6.00 to 7.00	–	–	CNC(=O)c1ccc(N2CCC(N3CCC(c4[nH]c(=O)c5ccccc5c4Cl)C3)CC2)cn1 (single isomer, unassigned) [Compound 219b]	+++ (+++ indicate a value of at least 100)
> 8.00	> 8.00	6.00 to 7.00	–	–	–	–	–	CNC(=O)c1ccc(N2CCC(N3CCC(c4nc5c(F)cc(F)cc5c(=O)[nH]4)C3)CC2)cn1 (single isomer, unassigned) [Compound 181b]	+++ (+++ indicate a value of at least 100)
–	–	–	7.00 to 8.00	7.00 to 8.00	< 5.00	–	–	CNC(=O)c1ccc(N2CCC(N3CCC(c4ccc(CC(F)(F)F)c(=O)[nH]4)C3)CC2)cn1 (racemic) [Compound 243rac]	++ (++ indicates a value of 50 to less than 100)
7.00 to 8.00	7.00 to 8.00	5.00 to 6.00	–	–	–	–	–	CNC(=O)c1ccc(N2CCC(N3CCC(c4cc5cccc(Cl)c5c(=O)[nH]4)C3)CC2)cn1 (single isomer, unassigned) [Compound 128a]	+++ (+++ indicate a value of at least 100)
–	–	–	> 8.00	> 8.00	6.00 to 7.00	–	–	CCc1ccc(C2CCN(C3CCN(c4ccc(C(=O)NCC(F)F)nc4F)CC3)C2)[nH]c1=O (single isomer, unassigned) [Compound 398b]	+++ (+++ indicate a value of at least 100)
> 8.00	> 8.00	< 5.00	–	–	–	–	–	CNC(=O)c1ccc(N2CCC(N3CCCC(c4nc5c(F)cccc5c(=O)[nH]4)C3)CC2)cn1 (single isomer, unassigned) [Compound 114a]	+++ (+++ indicate a value of at least 100)
> 8.00	> 8.00	6.00 to 7.00	–	–	–	–	–	CNC(=O)c1ccc(N2CCC(N3CCC(c4nc5c(F)ccc(F)c5c(=O)[nH]4)C3)CC2)cn1 (single isomer, unassigned) [Compound 182b]	+++ (+++ indicate a value of at least 100)
–	> 8.00	6.00 to 7.00	–	–	–	> 8.00	–	CNC(=O)c1ccc(N2CCC(N3CCC(c4nc5ccccc5c(=O)[nH]4)C3)CC2)cn1 (racemic) [Compound 10rac]	+++ (+++ indicate a value of at least 100)
6.00 to 7.00	6.00 to 7.00	< 5.00	–	–	–	–	–	CNC(=O)c1ccc(N2CCC(N3CCC(c4nc5cc(F)ccc5c(=O)[nH]4)C3)CC2)cn1 (single isomer, unassigned) [Compound 92a]	+ (+ indicates a value of 10 to less than 50)
> 8.00	> 8.00	6.00 to 7.00	–	–	–	–	–	CNC(=O)c1ccc(N2CCC(N3CCC(c4nc5c(F)cccc5c(=O)[nH]4)C3)CC2)cn1 (single isomer, unassigned) [Compound 121b]	+++ (+++ indicate a value of at least 100)
> 8.00	> 8.00	5.00 to 6.00	–	–	–	–	–	CNC(=O)c1ccc(N2CCC(N3CCC(c4ccc(OC)c(=O)[nH]4)C3)CC2)c(C(F)(F)F)n1 (single isomer, unassigned) [Compound 152a]	+++ (+++ indicate a value of at least 100)
> 8.00	> 8.00	5.00 to 6.00	–	–	–	–	–	CNC(=O)c1ccc(N2CCC(N3CCCC(c4ccc(C5CC5)c(=O)[nH]4)C3)CC2)cn1 (single isomer, unassigned) [Compound 126a]	+++ (+++ indicate a value of at least 100)

Second part, the compound before the results:

Compound	pKd [1, 4]	pIC50 [2, 5]	pKd ([3]; PARP2 probe displacement HTRF)	pKd [1, 6]	pIC50 [2, 7]	pKd ([3]; probe displacement HTRF)	pKd [1, 8]	pKd [1, 9]	Selectivity ([1]; probe displacement HTRF)
CNC(=O)c1ccc(N2CCC(N3CCCC(c4nc5ccccc5c(=O)[nH]4)C3)CC2)c(Cl)n1 (single isomer, unassigned) [Compound 94a]	7.00 to 8.00	7.00 to 8.00	5.00 to 6.00	–	–	–	–	–	+ (+ indicates a value of 10 to less than 50)
N#Cc1ccc(N2CCC(N3CCC(c4cc5cccc(F)c5c(=O)[nH]4)C3)CC2)nc1 (single isomer, unassigned) [Compound 340a]	–	–	–	> 8.00	> 8.00	6.00 to 7.00	–	–	+++ (+++ indicate a value of at least 100)
CNC(=O)c1cnc(N2CCC(N3CCC(c4cc5ccccc5c(=O)[nH]4)C3)CC2)s1 (racemic) [Compound 320rac]	–	–	–	6.00 to 7.00	6.00 to 7.00	5.00 to 6.00	–	–	− (− indicates a value of less than 10)
CNC(=O)c1ccc(N2CCC(N3CCC(c4cc5cccc(F)c5c(=O)[nH]4)C3)CC2)c(C#N)c1 (single isomer, unassigned) [Compound 345a]	–	–	–	> 8.00	> 8.00	6.00 to 7.00	–	–	+++ (+++ indicate a value of at least 100)
CNC(=O)c1ccc(N2CCC(N3CCC(c4cc5cccc(F)c5c(=O)[nH]4)C3)CC2)cc1F (single isomer, unassigned) [Compound 281a]	–	–	–	> 8.00	> 8.00	7.00 to 8.00	–	–	+ (+ indicates a value of 10 to less than 50)
CNC(=O)c1ccc(N2CCC(N3CC4(c5nc6ccc(F)cc6c(=O)[nH]5)CC3C4)CC2)c(C#N)n1 [Compound 387]	–	–	–	–	> 8.00	6.00 to 7.00	–	> 8.00	+++ (+++ indicate a value of at least 100)
CC(=O)Nc1ccc(N2CCC(N3CCC(c4nc5ccccc5c(=O)[nH]4)C3)CC2)cn1 (single isomer, unassigned) [Compound 262a]	–	–	–	5.00 to 6.00	6.00 to 7.00	5.00 to 6.00	–	–	− (− indicates a value of less than 10)
CNC(=O)c1ccc(N2CCC(N3CC4(c5nc6ccccc6c(=O)[nH]5)CC3(CO)C4)CC2)cn1 [Compound 284]	–	–	–	–	> 8.00	< 5.00	–	> 8.00	+++ (+++ indicate a value of at least 100)
CNC(=O)c1cc(C)c(N2CCC(N3CCC(c4cc5ccccc5c(=O)[nH]4)C3)CC2)c(C)n1 (single isomer, unassigned) [Compound 205a]	6.00 to 7.00	6.00 to 7.00	< 5.00	–	–	–	–	–	+ (+ indicates a value of 10 to less than 50)
CC(=O)NC(=O)c1ccc(N2CCC(N3CCC(c4cc5ccccc5c(=O)[nH]4)C3)CC2)cc1 (single isomer, unassigned) [Compound 341a]	–	–	–	> 8.00	> 8.00	6.00 to 7.00	–	–	+++ (+++ indicate a value of at least 100)
O=c1[nH]c(C2CCCN(C3CCN(c4ccc(F)cc4F)CC3)C2)nc2ccccc12 (single isomer, unassigned) [Compound 113a]	6.00 to 7.00	6.00 to 7.00	6.00 to 7.00	–	–	–	–	–	− (− indicates a value of less than 10)
O=C(NCC(F)F)c1ccc(N2CCC(N3CCC(c4cc5cccc(F)c5c(=O)[nH]4)C3)CC2)c(F)n1 (single isomer, unassigned) [Compound 390a]	–	–	–	> 8.00	> 8.00	6.00 to 7.00	–	–	+++ (+++ indicate a value of at least 100)
CNC(=O)c1ccc(N2CCC(N3CCC(O)(c4nc5ccccc5c(=O)[nH]4)C3)CC2)cn1 (single isomer, unassigned) [Compound 140b]	7.00 to 8.00	7.00 to 8.00	5.00 to 6.00	–	–	–	–	–	+++ (+++ indicate a value of at least 100)
CNC(=O)c1ccc(N2CCC(N3CC4(c5nc6ncccc6c(=O)[nH]5)CC3C4)CC2)cn1 [Compound 311]	–	–	–	–	> 8.00	5.00 to 6.00	–	> 8.00	+++ (+++ indicate a value of at least 100)
CC(=O)NC(=O)c1ccc(N2CCC(N3CCC(c4cc5ccccc5c(=O)[nH]4)C3)CC2)cc1 (single isomer, unassigned) [Compound 341b]	–	–	–	7.00 to 8.00	7.00 to 8.00	6.00 to 7.00	–	–	+ (+ indicates a value of 10 to less than 50)
O=c1[nH]c2ccc(N3CCC(N4CCC(c5cc6ccccc6c(=O)[nH]5)C4)CC3)cc2[nH]1 (racemic) [Compound 413rac]	–	–	–	> 8.00	> 8.00	6.00 to 7.00	–	–	+++ (+++ indicate a value of at least 100)
CNC(=O)c1ccc(OCCN2CCC(c3nc4ccccc4c(=O)[nH]3)C2)cn1 (single isomer, unassigned) [Compound 62b]	6.00 to 7.00	6.00 to 7.00	5.00 to 6.00	–	–	–	–	–	− (− indicates a value of less than 10)
